Assay: Phase II trial: C-peptide plasma levels (time-resolved fluoroimmunoassay)
Format: in vivo, human
Protocol: The sampling of C-peptide in plasma at visits 2 and 4 coincided with the clinical visit and the time between the most recent administration of the trial drug and sampling varied between patients. Thereby, the result of C-peptide concentrations in plasma was less suitable for pharmacokinetic evaluations, but the results contributed to the assessment of treatment compliance.
C-peptide plasma levels were measured at baseline, and after 3 and 6 months of treatment. Analysis was performed by the Department of Clinical Chemistry Karolinska University Hospital, Solna using a time-resolved fluoroimmunoassay (AutoDelfia, Wallac Oy, Turku, Finland). […] The plasma levels of C-peptide attained in this study ranged from about 0.2 nM to a maximum of about 6 nM in the high dose group.
C-peptide plasma levels were also measured pre-dosing in the morning in 22 randomly selected patients at the Karolinska Hospital after 4.5 months of study treatment (visit 3). As compared to the C-peptide concentration at baseline, the C-peptide plasma level at this visit was unchanged in the placebo-treated patients (0±0.008 nmoL/L; n=10), increased by 0.045±0.092 nmoL/L in the low-dose C-peptide group (n=8) and increased by 0.13±0.083 nmoL/L in the high-dose C-peptide group (n=4).

With `CC(C)C[C@H](NC(=O)[C@H](C)NC(=O)[C@H](CC(C)C)NC(=O)[C@@H]1CCCN1C(=O)[C@H](CCC(N)=O)NC(=O)[C@H](CC(C)C)NC(=O)[C@H](CO)NC(=O)CNC(=O)[C@H](C)NC(=O)CNC(=O)[C@@H]1CCCN1C(=O)CNC(=O)CNC(=O)CNC(=O)[C@H](CC(C)C)NC(=O)[C@H](CCC(=O)O)NC(=O)[C@@H](NC(=O)[C@H](CCC(N)=O)NC(=O)CNC(=O)[C@@H](NC(=O)[C@H](CCC(N)=O)NC(=O)[C@H](CC(C)C)NC(=O)[C@H](CC(=O)O)NC(=O)[C@H](CCC(=O)O)NC(=O)[C@H](C)NC(=O)[C@@H](N)CCC(=O)O)C(C)C)C(C)C)C(=O)N[C@@H](CCC(=O)O)C(=O)NCC(=O)N[C@@H](CO)C(=O)N[C@@H](CC(C)C)C(=O)N[C@@H](CCC(N)=O)C(=O)O` [C-peptide] the “expected concentrations relative to the low dose regimen” value (high dose 1,500 nmoL/24 h S.C., expected) was about 3 times, the “increase of pre-dosing morning C-peptide plasma level vs baseline” value (high-dose C-peptide group, n=4, 4.5 months (visit 3)) was 0.13 ± 0.083 nmol/L and the “expected physiological mean plasma concentration” value (low dose 500 nmoL/24 h S.C., 4 times daily, expected) was about 1 nmoL/L. The “increase of pre-dosing morning C-peptide plasma level vs baseline” value (low-dose C-peptide group, n=8, 4.5 months (visit 3)) was 0.045 ± 0.092 nmol/L.

Source: US7855177B1, “Methods and kits for preventing hypoglycemia” (Cebix Inc., priority 2009, dated 2010)
